# Assay results published in PubChem BioAssay (NCI).
# Values joined by “and” are separate entries in the source; they are usually repeats but may differ in a detail not shown here. Identical values can stand only once.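 48-hour exposure; five concentrations; linearly interpolated endpoints. At the GI50, growth is halved. TGI is the concentration that stops growth completely.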
# What was measured:
# Experiment in all cases: NCI tumour cell line growth inhibition, 48 h
# RPMI-8226 leukemia = system: RPMI-8226 leukemia
# SK-MEL-2 melanoma = system: SK-MEL-2 melanoma
# OVCAR-4 ovarian = system: OVCAR-4 ovarian
# HCC-2998 colon = system: HCC-2998 colon
# DLD-1 colon = system: DLD-1 colon
# OVCAR-3 ovarian = system: OVCAR-3 ovarian
# SNB-78 CNS = system: SNB-78 CNS
# HOP-92 NSCLC = system: HOP-92 NSCLC
# NCI-H522 lung = system: NCI-H522 lung
# DU-145 prostate = system: DU-145 prostate
smiles,measurement,setting,value
COC(=O)Cc1cc(=O)n2c3ccccc3n(C)c2c1C#N,TGI,RPMI-8226 leukemia,> 100 µM
same,TGI,SK-MEL-2 melanoma,> 100 µM
same,TGI,OVCAR-4 ovarian,> 100 µM
same,TGI,HCC-2998 colon,> 100 µM
same,TGI,DLD-1 colon,> 100 µM
same,TGI,OVCAR-3 ovarian,> 100 µM
same,TGI,SNB-78 CNS,> 100 µM
COC(=O)C1=NC(=S)NC(c2ccccc2)C1c1nc2ccccc2o1 (configuration not stated),TGI,RPMI-8226 leukemia,> 50 µM
same,TGI,SK-MEL-2 melanoma,> 50 µM
same,TGI,OVCAR-4 ovarian,> 50 µM
same,TGI,HCC-2998 colon,> 50 µM
same,TGI,DLD-1 colon,> 50 µM
same,TGI,OVCAR-3 ovarian,> 50 µM
same,TGI,SNB-78 CNS,> 50 µM
same,TGI,HOP-92 NSCLC,> 50 µM
same,TGI,NCI-H522 lung,> 50 µM
N#C/C(=C\c1ccc(O)cc1)C(N)=O,TGI,RPMI-8226 leukemia,> 100 µM
same,TGI,SK-MEL-2 melanoma,> 100 µM
same,TGI,OVCAR-4 ovarian,> 100 µM
same,TGI,HCC-2998 colon,> 100 µM
same,TGI,DLD-1 colon,> 100 µM
same,TGI,OVCAR-3 ovarian,> 100 µM
same,TGI,SNB-78 CNS,> 100 µM
same,TGI,HOP-92 NSCLC,> 100 µM
same,GI50,NCI-H522 lung,97.5 µM and 44 µM
same,TGI,NCI-H522 lung,> 100 µM
FC(F)(F)c1ccccc1C1SCc2nc3ccccc3n21 (configuration not stated),TGI,RPMI-8226 leukemia,> 100 µM
same,TGI,SK-MEL-2 melanoma,> 100 µM
same,TGI,HCC-2998 colon,> 100 µM
same,TGI,DLD-1 colon,> 100 µM
same,TGI,OVCAR-3 ovarian,> 100 µM
same,TGI,SNB-78 CNS,> 100 µM
same,TGI,HOP-92 NSCLC,53.3 µM
same,TGI,NCI-H522 lung,> 100 µM
Cn1c(=O)c(-c2ccccc2Cl)cc2cnc(NC3CCOCC3)nc21,GI50,DU-145 prostate,12.3 µM
same,TGI,DU-145 prostate,> 25 µM
same,GI50,RPMI-8226 leukemia,> 15.7 µM
same,TGI,RPMI-8226 leukemia,> 25 µM
same,GI50,SK-MEL-2 melanoma,6.1 µM
same,TGI,SK-MEL-2 melanoma,14.7 µM
same,GI50,OVCAR-4 ovarian,10.4 µM
same,TGI,OVCAR-4 ovarian,> 25 µM
same,GI50,HCC-2998 colon,> 21.8 µM
same,TGI,HCC-2998 colon,> 25 µM
same,GI50,OVCAR-3 ovarian,> 22.7 µM
same,TGI,OVCAR-3 ovarian,> 25 µM
same,GI50,HOP-92 NSCLC,4.27 µM
same,TGI,HOP-92 NSCLC,21.6 µM
same,GI50,NCI-H522 lung,12.6 µM
same,TGI,NCI-H522 lung,> 25 µM
COc1ccc2nc3ccccc3c(NCCNCCO)c2c1,GI50,DU-145 prostate,0.588 µM
same,TGI,DU-145 prostate,5.8 µM
same,GI50,RPMI-8226 leukemia,0.406 µM
same,TGI,RPMI-8226 leukemia,2.73 µM
same,GI50,SK-MEL-2 melanoma,0.448 µM
same,TGI,SK-MEL-2 melanoma,2.8 µM
same,GI50,OVCAR-4 ovarian,0.836 µM
same,TGI,OVCAR-4 ovarian,3.26 µM
same,GI50,HCC-2998 colon,0.898 µM
same,TGI,HCC-2998 colon,2.5 µM
same,GI50,OVCAR-3 ovarian,0.624 µM
same,TGI,OVCAR-3 ovarian,2.77 µM
same,GI50,HOP-92 NSCLC,0.908 µM
same,TGI,HOP-92 NSCLC,4.22 µM
same,GI50,NCI-H522 lung,0.38 µM
same,TGI,NCI-H522 lung,1.97 µM
C[N+](C)(C)CC1CCC(C[N+](C)(C)C)C1=NO (configuration not stated),TGI,RPMI-8226 leukemia,> 100 µM
same,TGI,SK-MEL-2 melanoma,> 100 µM
same,TGI,OVCAR-4 ovarian,> 100 µM
same,TGI,DLD-1 colon,> 100 µM
same,TGI,OVCAR-3 ovarian,> 100 µM
same,TGI,SNB-78 CNS,> 100 µM
same,TGI,NCI-H522 lung,> 100 µM
CCCCNc1ncnc2c1cnn2-c1ccccc1,GI50,DU-145 prostate,3.47 µM
same,TGI,DU-145 prostate,32.1 µM
same,GI50,RPMI-8226 leukemia,3.76 µM
same,TGI,RPMI-8226 leukemia,> 28.3 µM
same,GI50,SK-MEL-2 melanoma,2.82 µM
same,TGI,SK-MEL-2 melanoma,> 100 µM
same,GI50,OVCAR-4 ovarian,18.3 µM
same,TGI,OVCAR-4 ovarian,> 100 µM
same,GI50,HCC-2998 colon,5.72 µM
same,TGI,HCC-2998 colon,37.8 µM
same,GI50,OVCAR-3 ovarian,1.46 µM
same,TGI,OVCAR-3 ovarian,5.16 µM
same,GI50,HOP-92 NSCLC,3.21 µM
same,TGI,HOP-92 NSCLC,55.6 µM
same,GI50,NCI-H522 lung,0.799 µM
same,TGI,NCI-H522 lung,9.94 µM
CC(C)(Oc1ccc(-c2cccc3ccccc23)cc1)C(=O)O,TGI,DU-145 prostate,> 100 µM
same,TGI,RPMI-8226 leukemia,> 100 µM
same,TGI,SK-MEL-2 melanoma,> 100 µM
same,TGI,OVCAR-4 ovarian,> 100 µM
same,TGI,HCC-2998 colon,> 100 µM
same,TGI,OVCAR-3 ovarian,> 100 µM
same,TGI,HOP-92 NSCLC,> 100 µM
same,TGI,NCI-H522 lung,> 100 µM
[O]=[Sn]([CH]1CCCCC1)[CH]1CCCCC1,GI50,DU-145 prostate,0.259 µM
same,TGI,DU-145 prostate,0.839 µM
same,GI50,RPMI-8226 leukemia,0.188 µM
same,TGI,RPMI-8226 leukemia,0.718 µM
same,GI50,SK-MEL-2 melanoma,0.108 µM
same,TGI,SK-MEL-2 melanoma,0.284 µM
same,GI50,OVCAR-4 ovarian,0.342 µM
same,TGI,OVCAR-4 ovarian,1.46 µM
same,GI50,HCC-2998 colon,0.245 µM
same,TGI,HCC-2998 colon,0.693 µM
same,GI50,OVCAR-3 ovarian,0.203 µM
same,TGI,OVCAR-3 ovarian,0.549 µM
same,GI50,HOP-92 NSCLC,0.251 µM
same,TGI,HOP-92 NSCLC,1.2 µM
same,GI50,NCI-H522 lung,0.0711 µM
same,TGI,NCI-H522 lung,0.217 µM
Cc1cc(N(CCC#N)CCC#N)ccc1/C=C(\NC(=O)/C=C/c1ccccc1)C(=O)Nc1ccccc1Cl,TGI,RPMI-8226 leukemia,> 100 µM
same,TGI,SK-MEL-2 melanoma,> 100 µM
same,TGI,OVCAR-4 ovarian,> 100 µM
same,TGI,HCC-2998 colon,> 100 µM
same,TGI,DLD-1 colon,> 100 µM
same,TGI,OVCAR-3 ovarian,> 100 µM
same,TGI,SNB-78 CNS,> 100 µM
same,TGI,HOP-92 NSCLC,94.5 µM
Nc1ncn([C@H]2CC(O)[C@@H](CO)S2)c(=O)n1 (some centres not stated),GI50,DU-145 prostate,2.27 µM
same,TGI,DU-145 prostate,> 100 µM
same,GI50,RPMI-8226 leukemia,6.22 µM
same,TGI,RPMI-8226 leukemia,> 100 µM
same,GI50,SK-MEL-2 melanoma,7.05 µM
same,TGI,SK-MEL-2 melanoma,> 100 µM
same,GI50,OVCAR-4 ovarian,> 100 µM
same,TGI,OVCAR-4 ovarian,> 100 µM
same,GI50,HCC-2998 colon,2.44 µM
same,TGI,HCC-2998 colon,> 100 µM
same,GI50,OVCAR-3 ovarian,6.08 µM
same,TGI,OVCAR-3 ovarian,> 100 µM
same,GI50,HOP-92 NSCLC,> 100 µM
same,TGI,HOP-92 NSCLC,> 100 µM
same,GI50,NCI-H522 lung,0.154 µM
same,TGI,NCI-H522 lung,> 100 µM
CN1CCCCC1CCN1c2ccccc2Sc2ccc(Br)cc21 (configuration not stated),GI50,DU-145 prostate,3.7 µM
same,TGI,DU-145 prostate,12.6 µM
same,GI50,RPMI-8226 leukemia,2.24 µM
same,TGI,RPMI-8226 leukemia,5.49 µM
same,GI50,SK-MEL-2 melanoma,2.5 µM
same,TGI,SK-MEL-2 melanoma,5.94 µM
same,GI50,OVCAR-4 ovarian,3.6 µM
same,TGI,OVCAR-4 ovarian,13.6 µM
same,GI50,HCC-2998 colon,1.97 µM
same,TGI,HCC-2998 colon,4.11 µM
same,GI50,OVCAR-3 ovarian,3.36 µM
same,TGI,OVCAR-3 ovarian,11.7 µM
same,GI50,HOP-92 NSCLC,1.4 µM
same,TGI,HOP-92 NSCLC,4.72 µM
same,GI50,NCI-H522 lung,1.73 µM
same,TGI,NCI-H522 lung,3.49 µM
Cc1ccc(-c2nc(NCCOCCOCCN)nc(N3CCN(c4ccccn4)CC3)n2)cc1,GI50,DU-145 prostate,16.6 µM
same,TGI,DU-145 prostate,31.1 µM
same,GI50,RPMI-8226 leukemia,10.6 µM
same,TGI,RPMI-8226 leukemia,32.8 µM
same,GI50,SK-MEL-2 melanoma,18 µM
same,TGI,SK-MEL-2 melanoma,35.9 µM
same,GI50,OVCAR-4 ovarian,14.7 µM
same,TGI,OVCAR-4 ovarian,29.3 µM
same,GI50,HCC-2998 colon,8.01 µM
same,TGI,HCC-2998 colon,21.9 µM
same,GI50,OVCAR-3 ovarian,16.9 µM
same,TGI,OVCAR-3 ovarian,31.2 µM
same,GI50,HOP-92 NSCLC,4.15 µM
same,TGI,HOP-92 NSCLC,19 µM
same,GI50,NCI-H522 lung,18.4 µM
same,TGI,NCI-H522 lung,37 µM
CC(C)=C[C@@H]1C[C@H](C)[C@H]2CC[C@H](C)c3c(O)c(OC4OC(C)C(O)C(O)C4O)c(C)c1c32 (some centres not stated),GI50,DU-145 prostate,10.9 µM
same,TGI,DU-145 prostate,23.3 µM
same,GI50,RPMI-8226 leukemia,12.5 µM
same,TGI,RPMI-8226 leukemia,27.6 µM
same,GI50,SK-MEL-2 melanoma,19.8 µM
same,TGI,SK-MEL-2 melanoma,35.5 µM
same,GI50,OVCAR-4 ovarian,12.1 µM
same,TGI,OVCAR-4 ovarian,24.7 µM
same,GI50,HCC-2998 colon,0.734 µM
same,TGI,HCC-2998 colon,3.97 µM
same,GI50,OVCAR-3 ovarian,1.93 µM
same,TGI,OVCAR-3 ovarian,8.43 µM
same,GI50,HOP-92 NSCLC,14.8 µM
same,TGI,HOP-92 NSCLC,28.5 µM
same,GI50,NCI-H522 lung,16.1 µM
same,TGI,NCI-H522 lung,29.8 µM
O=C(/C=C/c1ccccc1)c1ccc(Cl)cc1Cl,TGI,RPMI-8226 leukemia,28.4 µM
same,TGI,OVCAR-4 ovarian,46.1 µM
same,TGI,HCC-2998 colon,40.9 µM
same,TGI,DLD-1 colon,33.3 µM
same,TGI,OVCAR-3 ovarian,40.2 µM
same,TGI,SNB-78 CNS,49.3 µM
same,TGI,HOP-92 NSCLC,69.3 µM
same,TGI,NCI-H522 lung,28.3 µM
NNc1c(C(N)=O)c2c(N)ncnc2n1C1OC(CO)C(O)C1O (configuration not stated),GI50,DU-145 prostate,< 0.0151 µM
same,TGI,DU-145 prostate,0.183 µM and 0.178 µM
same,GI50,RPMI-8226 leukemia,0.0404 µM and 0.0364 µM
same,TGI,RPMI-8226 leukemia,0.221 µM and 0.143 µM
same,GI50,SK-MEL-2 melanoma,0.0273 µM and 0.0256 µM
same,TGI,SK-MEL-2 melanoma,0.0946 µM and 0.307 µM
same,GI50,OVCAR-4 ovarian,< 0.0105 µM
same,TGI,OVCAR-4 ovarian,0.776 µM and 0.16 µM
same,GI50,HCC-2998 colon,< 0.0176 µM and 0.0165 µM
same,TGI,HCC-2998 colon,0.0462 µM and 0.0691 µM
same,GI50,OVCAR-3 ovarian,0.0176 µM and 0.0219 µM
same,TGI,OVCAR-3 ovarian,0.4 µM and 0.335 µM
same,GI50,HOP-92 NSCLC,0.0285 µM and 0.0507 µM
same,TGI,HOP-92 NSCLC,0.347 µM and 0.333 µM
same,GI50,NCI-H522 lung,0.0328 µM and 0.152 µM
CCCC1C[C@H]2CCCCN2[C@H]2CCCN12 (some centres not stated),TGI,RPMI-8226 leukemia,> 63.9 µM
same,TGI,SK-MEL-2 melanoma,> 100 µM
same,TGI,OVCAR-4 ovarian,> 100 µM
same,TGI,HCC-2998 colon,> 100 µM
same,TGI,DLD-1 colon,> 83.6 µM
same,TGI,OVCAR-3 ovarian,> 100 µM
same,TGI,SNB-78 CNS,> 100 µM
same,TGI,HOP-92 NSCLC,> 100 µM
same,TGI,NCI-H522 lung,> 100 µM
